Laboratory results taken from the supplement of paper PMC9663587.

What was measured:
[1] = compound: T1, CC(=O)c1c(C)c2cnc(Nc3ccc(N4CCN(CCOCCOCCOCCNC(=O)COc5cccc6c5C(=O)N(C5CCC(=O)NC5=O)C6=O)CC4)cn3)nc2n(C2CCCC2)c1=O [BSJ-03-123]
[2] = compound: Cc1nc(-c2cn3c(n2)-c2ccc(-c4cnn(C(C)(C)C(N)=O)c4)cc2OCC3)n(C(C)C)n1 [Taselisib/GDC0032]
[3] = compound: Cc1cc(Nc2ncc(Cl)c(Nc3ccccc3S(=O)(=O)C(C)C)n2)c(OC(C)C)cc1C1CCNCC1 [Ceritinib/LDK378]
[4] = compound: T2, CCOc1cc2ncc(C#N)c(Nc3ccc(OCc4ccccn4)c(Cl)c3)c2cc1NC(=O)/C=C/CN(C)C [Neratinib/HKI272]
[5] = compound: COc1cccc2c1C(=O)c1c(O)c3c(c(O)c1C2=O)C[C@@](O)(C(=O)CO)C[C@@H]3O[C@H]1C[C@H](N)[C@H](O)[C@H](C)O1 [Doxorubicin]
[6] = compound: T3, CN(C)C/C=C/C(=O)Nc1ccc(C(=O)N2CCC[C@@H](Nc3ncc(Cl)c(-c4c[nH]c5ccccc45)n3)C2)cc1 [THZ531]
[7] = compound: CN(C)C/C=C/C(=O)Nc1ccc(O[C@@H]2CCC[C@@H](Nc3ncc(Cl)c(-c4c[nH]c5ccccc45)n3)C2)cc1 [BSJ-01-175]
[8] = compound: CC(=O)Nc1cccc(-n2c(=O)n(C3CC3)c(=O)c3c(Nc4ccc(I)cc4F)n(C)c(=O)c(C)c32)c1
[9] = compound: Cc1nc(Nc2ncc(C(=O)Nc3c(C)cccc3Cl)s2)cc(N2CCN(CCO)CC2)n1 [Dasatinib]
[10] = compound: CO[C@@H](C)Cn1c(=O)n(C)c2cnc3ccc(-c4cncc(C(C)(C)O)c4)cc3c21
[11] = compound: CNCc1ccc(-c2[nH]c3cc(F)cc4c3c2CCNC4=O)cc1 [Rucaparib]
[12] = compound: CC(C)n1nc(-c2ccc3oc(N)nc3c2)c2c(N)ncnc21 [INK128/MLN0128]
[13] = compound: CNC(=O)c1cccc(-c2ccc3c(N4CCOC[C@@H]4C)nc(N4CCOC[C@@H]4C)nc3n2)c1 [AZD2014]
[14] = compound: O=C(CCCCCCC(=O)Nc1ccccc1)NO [Vorinostat]
[15] = compound: CC[C@@H]1C(=O)N(C)c2cnc(Nc3ccc(C(=O)N[C@H]4CC[C@H](N5CCN(CC6CC6)CC5)CC4)cc3OC)nc2N1C(C)C [Volasertib/BI6727]
[16] = compound: CC(=O)c1c(C)c2cnc(Nc3ccc(N4CCNCC4)cn3)nc2n(C2CCCC2)c1=O
[17] = compound: T1, BSJ-03-123; test: increase in dead-cell fraction, 72 h; higher = more death;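 note: breast cancer cell lines in 384-well plates, stained with Hoechst plus LIVE/DEAD far red dye and imaged, cells above an LDR intensity threshold counted dead, Hoechst-negative corpses included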
[18] = compound: CCc1cnn2c(NCc3ccc[n+]([O-])c3)cc(N3CCCC[C@H]3CCO)nc12; test: as above
[19] = compound: CN(C)C/C=C/C(=O)Nc1ccc(C(=O)Nc2cccc(Nc3ncc(Cl)c(-c4c[nH]c5ccccc45)n3)c2)cc1 [THZ1]; test: as above
[20] = compound: T2, Neratinib/HKI272; test: as above
[21] = compound: T3, THZ531; test: as above
[22] = compound: C=CC(=O)Nc1ccc(C(=O)Nc2[nH]nc3c2CN(C(=O)N[C@H](CN(C)C)c2ccccc2)C3(C)C)cc1 [YKL-5-124]; test: as above
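Throughout, for GR50, 72 h: breast cancer and non-malignant breast epithelial cell lines, Deep Dye Drop or Dye Drop imaging, nine half-log doses, GR normalized to time-zero plates and DMSO-only controls.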

## AU565
[1]
  GR50, 72 h: 1.21 µM
[2]
  GR50, 72 h: 0.00379 µM
[3]
  GR50, 72 h: 3.15 µM
[4]
  GR50, 72 h: 0.00121 µM
[5]
  GR50, 72 h: 0.0352 µM
[6]
  GR50, 72 h: 0.055 µM
[7]
  GR50, 72 h: 0.00616 µM
[8]
  GR50, 72 h: > 1 µM
[9]
  GR50, 72 h: 5.35 µM
[10]
  GR50, 72 h: 0.00478 µM
[11]
  GR50, 72 h: > 10 µM
[12]
  GR50, 72 h: 0.00529 µM
[13]
  GR50, 72 h: 0.00361 µM
[14]
  GR50, 72 h: 1.07 µM
[15]
  GR50, 72 h: 0.00381 µM
[16]
  GR50, 72 h: 0.165 µM
[17]; 0.001 µM
  increase in dead-cell fraction: 0.0012
[17]; 0.003162 µM
  increase in dead-cell fraction: -0.0066
[17]; 0.01 µM
  increase in dead-cell fraction: 0.0069
[17]; 0.03162 µM
  increase in dead-cell fraction: -0.0059
[17]; 0.1 µM
  increase in dead-cell fraction: 0.0078
[17]; 0.3162 µM
  increase in dead-cell fraction: 0.0057
[17]; 1 µM
  increase in dead-cell fraction: 0.0399
[17]; 3.162 µM
  increase in dead-cell fraction: 0.0336
[17]; 10 µM
  increase in dead-cell fraction: 0.306
[18]; 0.0001 µM
  increase in dead-cell fraction: 0.0029
[18]; 0.0003162 µM
  increase in dead-cell fraction: 0.0001
[18]; 0.001 µM
  increase in dead-cell fraction: 0.0027
[18]; 0.003162 µM
  increase in dead-cell fraction: 0.0033
[18]; 0.01 µM
  increase in dead-cell fraction: 0.0437
[18]; 0.03162 µM
  increase in dead-cell fraction: 0.247
[18]; 0.1 µM
  increase in dead-cell fraction: 0.346
[18]; 0.3162 µM
  increase in dead-cell fraction: 0.315
[18]; 1 µM
  increase in dead-cell fraction: 0.345
[19]; 0.0001 µM
  increase in dead-cell fraction: -0.0048
[19]; 0.0003162 µM
  increase in dead-cell fraction: -0.0064
[19]; 0.001 µM
  increase in dead-cell fraction: -0.0098
[19]; 0.003162 µM
  increase in dead-cell fraction: -0.0018
[19]; 0.01 µM
  increase in dead-cell fraction: 0.0038
[19]; 0.03162 µM
  increase in dead-cell fraction: 0.0873
[19]; 0.1 µM
  increase in dead-cell fraction: 0.262
[19]; 0.3162 µM
  increase in dead-cell fraction: 0.48
[19]; 1 µM
  increase in dead-cell fraction: 0.579
[20]; 0.0003162 µM
  increase in dead-cell fraction: 0.0048
[20]; 0.001 µM
  increase in dead-cell fraction: 0.0173
[20]; 0.003162 µM
  increase in dead-cell fraction: 0.0398
[20]; 0.01 µM
  increase in dead-cell fraction: 0.0858
[20]; 0.03162 µM
  increase in dead-cell fraction: 0.16
[20]; 0.1 µM
  increase in dead-cell fraction: 0.195
[20]; 0.3162 µM
  increase in dead-cell fraction: 0.232
[20]; 1 µM
  increase in dead-cell fraction: 0.206
[20]; 3.162 µM
  increase in dead-cell fraction: 0.321
[21]; 0.0001 µM
  increase in dead-cell fraction: 0.0002
[21]; 0.0003162 µM
  increase in dead-cell fraction: 0.0023
[21]; 0.001 µM
  increase in dead-cell fraction: -0.0009
[21]; 0.003162 µM
  increase in dead-cell fraction: 0.0019
[21]; 0.01 µM
  increase in dead-cell fraction: -0.005
[21]; 0.03162 µM
  increase in dead-cell fraction: 0.0372
[21]; 0.1 µM
  increase in dead-cell fraction: 0.133
[21]; 0.3162 µM
  increase in dead-cell fraction: 0.297
[21]; 1 µM
  increase in dead-cell fraction: 0.488
[22]; 0.001 µM
  increase in dead-cell fraction: 0.0305
[22]; 0.003162 µM
  increase in dead-cell fraction: 0.0489
[22]; 0.01 µM
  increase in dead-cell fraction: 0.0994
[22]; 0.03162 µM
  increase in dead-cell fraction: 0.0877
[22]; 0.1 µM
  increase in dead-cell fraction: 0.0813
[22]; 0.3162 µM
  increase in dead-cell fraction: 0.114
[22]; 1 µM
  increase in dead-cell fraction: 0.113
[22]; 3.162 µM
  increase in dead-cell fraction: 0.215
[22]; 10 µM
  increase in dead-cell fraction: 0.524
